Several values for one entry are separate records, joined by “and”; a condition that tells them apart may be missing. Equal entries are not always repeated. Entries after “also recorded” stand apart in the source; their conditions may differ. Where two headings read alike, the source gives them in different places.
Tests used:
[1] = test system: advanced solid tumours; assay: Phase 1 efficacy assessment (RECIST v1.1); type: in vivo, human
Method: Diagnostic imaging response assessments (computed tomography or magnetic resonance imaging) were performed at baseline and at the end of every two cycles or as clinically indicated. All patients who had at least one post-baseline radiographic assessment of target, non-target, and new lesions constituted the efficacy-evaluable population. Patients were evaluated for complete response (CR), partial response (PR), stable disease (SD) ≥6 months, or progressive disease as determined by RECIST v1.1.[17] Objective response rate (ORR = CR + PR) and clinical benefit rate (CBR = CR + PR + SD ≥ 6 months) were evaluated. Data cut-off for the efficacy-evaluable population was January 21, 2019.

[2] = test system: patients with advanced solid tumours
Text: A standard 3+3 dose-escalation scheme was used to identify the maximally tolerated dose (MTD) and RP2D.
Patients without evidence of high-grade neutropenia during this run-in period resumed daily dosing in standard 28-day cycles.
Select haematologic DLT included febrile neutropenia grade ≥3 and/or neutropenia grade ≥3 associated with infection or asymptomatic neutropenia grade ≥3 that persisted for >7 days. Use of haematopoietic growth factors (e.g. G-CSF, erythropoietin) in Cycle 1 was not permitted unless a DLT occurred.
The RP2D was based on the MTD established during dose escalation together with a comprehensive review of toxicities, PKs, and efficacy outcomes.
Dose escalations occurred in 100% increments for individual dosing cohorts up to 32 mg/day. Subsequent dose escalations continued in increments not exceeding 50%, depending on toxicities experienced, and with the approval of local Investigators and the external Medical Monitor.
Hematologic DLTs were defined as drug-related anemia grade ≥3; febrile neutropenia grade ≥3, and/or neutropenia grade ≥3 associated with infection; asymptomatic neutropenia grade ≥3 that persisted for >7 days; asymptomatic thrombocytopenia grade ≥3 that persisted for >7 days following treatment interruption; grade 3 thrombocytopenia associated with bleeding; or grade 4 thrombocytopenia.
Dose escalation decisions were made following the completion of Cycle 1 for all patients enrolled in a given dose level, taking into consideration adverse events (AE) and pharmacokinetic results.

[3] = test system: PLK2; set-up: method as in printed; settings: preclinical, ref not given; cited from earlier work
[4] = test system: PLK3; set-up: method as in printed; settings: preclinical, ref not given; cited from earlier work
[5] = test system: Abl [T315I]; set-up: method as in printed; settings: preclinical, ref not given; cited from earlier work
[6] = test system: TrkA; set-up: method as in printed; settings: preclinical, ref not given; cited from earlier work
[7] = test system: Bmx; set-up: method as in printed; settings: preclinical, ref not given; cited from earlier work
[8] = test system: FGFR1; set-up: method as in printed; settings: preclinical, ref not given; cited from earlier work
[9] = test system: Tie2; set-up: method as in printed; settings: preclinical, ref not given; cited from earlier work
[10] = test system: Ros; set-up: method as in printed; settings: preclinical, ref not given; cited from earlier work
[11] = test system: AurB; set-up: method as in printed; settings: preclinical, ref not given; cited from earlier work
[12] = test system: CYP1A2; set-up: method as in printed; settings: preclinical testing, ref not given; cited from earlier work
[13] = test system: P-glycoprotein; set-up: method as in printed; settings: preclinical testing, ref not given; cited from earlier work
[14] = test system: BCRP; set-up: method as in printed; settings: preclinical testing, ref not given; cited from earlier work
[15] = test system: OCT1; set-up: method as in printed; settings: preclinical testing, ref not given; cited from earlier work
[16] = test system: OCT2; set-up: method as in printed; settings: preclinical testing, ref not given; cited from earlier work
[17] = test system: OATP1B3; set-up: method as in printed; settings: preclinical testing, ref not given; cited from earlier work
[18] = test system: patient-derived xenograft (PDX) models across multiple tumour types; settings: preclinical, including PDX models; cited from earlier work
[19] = test system: rodents; set-up: method as in printed; settings: toxicology studies, ref not given; cited from earlier work
[20] = test system: dogs; set-up: method as in printed; settings: toxicology studies, ref not given; cited from earlier work
[21] = efficacy-evaluable population (n = 49)
[22] = patient with AKT1 E17K mutant endometrioid endometrial carcinoma
[23] = patient with MSS endometrial carcinoma
[24] = oral daily 72 mg (n = 6; one patient removed, not DLT evaluable)

COc1ccc2c(c1)[C@]1(C[C@H]1c1ccc3c(/C=C/c4ccc(CN5C[C@@H](C)O[C@@H](C)C5)cc4)n[nH]c3c1)C(=O)N2 [CFI-400945]
Progressive disease as best response ([1]; 35/49 patients): 71% | patients with SD ≥6 months ([1]; RECIST v1.1): two and 2/13 | partial responses (PR) ([1]; adenoid cystic carcinoma, 48 mg): One PR | ORR ([1]; efficacy-evaluable cohort, 1/49): 2% | CBR ([1]; efficacy-evaluable cohort, 3/49): 6% | complete responses (CR) [1, 21]: No CRs | duration on study, range [1, 21]: 0.1–40.7 months | median duration on study [1, 21]: 1.9 months | median progression-free survival [1, 21]: 3.2 months | patients with SD as best response [1, 21]: 13 patients | progression-free survival, 95% confidence interval [1, 21]: 1.6–4.9 months | lowest dose with evidence of antitumour activity ([1]; in vivo): 48 mg | target lesion reduction [1, 22]: −19% | time on study with SD [1, 22]: 6 cycles | time on study ([1]; patient with KRAS-mutant, MSS colorectal cancer, 48 mg): 12 cycles | duration of SD [1, 23]: 8 cycles | reduction in target lesions [1, 23]: 3.7% | duration of PR / time on trial, ongoing at data cut-off ([1]; patient with adenoid cystic carcinoma, 48 mg): 45 cycles | DLT events ([2]; 64 mg dose escalation, 6 patients): no DLT events | patients with a DLT event ([2]; 64 mg dose level, escalation plus expansion): 1/15 | DLT event in dose expansion ([2]; 64 mg expansion, Cycle 1 Day 15): One patient experienced grade 4 febrile neutropenia | tolerability ([2]; 64 mg, continuous daily dosing): well tolerated; also recorded: tolerable | DLT events ([2]; 72 mg (7 total), Cycle 1): Two patients experienced DLT events | tolerability ([2]; 96 mg daily): intolerable | DLT events ([2]; 96 mg, Cycle 1): one DLT (grade 3 febrile neutropenia) | Total number of patients with DLT, all dosages ([2]; 3-96 mg (n = 48)): 4 | DLT description, grade 3 ([2]; all dose levels (n = 48)): Neutropenia, febrile neutropenia | DLT description, grade 4 ([2]; all dose levels (n = 48)): Febrile neutropenia, lipase elevated | recommended phase 2 dose (RP2D) ([2]; continuous daily oral dosing): 64 mg | principal DLT ([2]; continuous dosing schedule): Neutropenia | Total number of patients with DLT at each dosage ([2]; oral daily 3 mg (n = 3)): 0 | patients with DLT, grade 1 ([2]; oral daily 3 mg (n = 3)): 0 | patients with DLT, grade 2 ([2]; oral daily 3 mg (n = 3)): 0 | patients with DLT, grade 3, number (%) ([2]; oral daily 3 mg (n = 3)): 0 | patients with DLT, grade 4, number (%) ([2]; oral daily 3 mg (n = 3)): 0 | patients with DLT, grade 5 ([2]; oral daily 3 mg (n = 3)): 0 | Total number of patients with DLT at each dosage ([2]; oral daily 6 mg (n = 3)): 0 | patients with DLT, grade 1 ([2]; oral daily 6 mg (n = 3)): 0 | patients with DLT, grade 2 ([2]; oral daily 6 mg (n = 3)): 0 | patients with DLT, grade 3, number (%) ([2]; oral daily 6 mg (n = 3)): 0 | patients with DLT, grade 4, number (%) ([2]; oral daily 6 mg (n = 3)): 0 | patients with DLT, grade 5 ([2]; oral daily 6 mg (n = 3)): 0 | Total number of patients with DLT at each dosage ([2]; oral daily 11 mg (n = 3)): 0 | patients with DLT, grade 1 ([2]; oral daily 11 mg (n = 3)): 0 | patients with DLT, grade 2 ([2]; oral daily 11 mg (n = 3)): 0 | patients with DLT, grade 3, number (%) ([2]; oral daily 11 mg (n = 3)): 0 | patients with DLT, grade 4, number (%) ([2]; oral daily 11 mg (n = 3)): 0 | patients with DLT, grade 5 ([2]; oral daily 11 mg (n = 3)): 0 | Total number of patients with DLT at each dosage ([2]; oral daily 16 mg (n = 3)): 0 | patients with DLT, grade 1 ([2]; oral daily 16 mg (n = 3)): 0 | patients with DLT, grade 2 ([2]; oral daily 16 mg (n = 3)): 0 | patients with DLT, grade 3, number (%) ([2]; oral daily 16 mg (n = 3)): 0 | patients with DLT, grade 4, number (%) ([2]; oral daily 16 mg (n = 3)): 0 | patients with DLT, grade 5 ([2]; oral daily 16 mg (n = 3)): 0 | Total number of patients with DLT at each dosage ([2]; oral daily 24 mg (n = 3)): 0 | patients with DLT, grade 1 ([2]; oral daily 24 mg (n = 3)): 0 | patients with DLT, grade 2 ([2]; oral daily 24 mg (n = 3)): 0 | patients with DLT, grade 3, number (%) ([2]; oral daily 24 mg (n = 3)): 0 | patients with DLT, grade 4, number (%) ([2]; oral daily 24 mg (n = 3)): 0 | patients with DLT, grade 5 ([2]; oral daily 24 mg (n = 3)): 0 | Total number of patients with DLT at each dosage ([2]; oral daily 32 mg (n = 3)): 0 | patients with DLT, grade 1 ([2]; oral daily 32 mg (n = 3)): 0 | patients with DLT, grade 2 ([2]; oral daily 32 mg (n = 3)): 0 | patients with DLT, grade 3, number (%) ([2]; oral daily 32 mg (n = 3)): 0 | patients with DLT, grade 4, number (%) ([2]; oral daily 32 mg (n = 3)): 0 | patients with DLT, grade 5 ([2]; oral daily 32 mg (n = 3)): 0 | Total number of patients with DLT at each dosage ([2]; oral daily 48 mg (n = 3)): 0 | patients with DLT, grade 1 ([2]; oral daily 48 mg (n = 3)): 0 | patients with DLT, grade 2 ([2]; oral daily 48 mg (n = 3)): 0 | patients with DLT, grade 3, number (%) ([2]; oral daily 48 mg (n = 3)): 0 | patients with DLT, grade 4, number (%) ([2]; oral daily 48 mg (n = 3)): 0 | patients with DLT, grade 5 ([2]; oral daily 48 mg (n = 3)): 0 | Total number of patients with DLT at each dosage ([2]; oral daily 64 mg (n = 15)): 1 | patients with DLT, grade 1 ([2]; oral daily 64 mg (n = 15)): 0 | patients with DLT, grade 2 ([2]; oral daily 64 mg (n = 15)): 0 | patients with DLT, grade 3, number (%) ([2]; oral daily 64 mg (n = 15)): 0 | patients with DLT, grade 4, number (%) ([2]; oral daily 64 mg (n = 15)): 1 (6.7) | patients with DLT, grade 5 ([2]; oral daily 64 mg (n = 15)): 0 | Total number of patients with DLT at each dosage [2, 24]: 2 | patients with DLT, grade 1 [2, 24]: 0 | patients with DLT, grade 2 [2, 24]: 0 | patients with DLT, grade 3, number (%) [2, 24]: 1 (16.7) | patients with DLT, grade 4, number (%) [2, 24]: 1 (16.7) | patients with DLT, grade 5 [2, 24]: 0 | Total number of patients with DLT at each dosage ([2]; oral daily 96 mg (n = 6)): 1 | patients with DLT, grade 1 ([2]; oral daily 96 mg (n = 6)): 0 | patients with DLT, grade 2 ([2]; oral daily 96 mg (n = 6)): 0 | patients with DLT, grade 3, number (%) ([2]; oral daily 96 mg (n = 6)): 1 (16.7) | patients with DLT, grade 4, number (%) ([2]; oral daily 96 mg (n = 6)): 0 | patients with DLT, grade 5 ([2]; oral daily 96 mg (n = 6)): 0 | IC50 [3]: > 50000 nM | IC50 [4]: > 50000 nM | IC50 [5]: < 100 nM | IC50 [6]: < 100 nM | IC50 [7]: < 100 nM | IC50 [8]: < 100 nM | IC50 [9]: < 100 nM | IC50 [10]: < 100 nM | IC50 [11]: < 100 nM | time-dependent inhibition of CYP1A2 [12]: time-dependent inhibitor | inhibition of P-glycoprotein [13]: inhibitor | inhibition of BCRP [14]: inhibitor | inhibition of OCT1 [15]: inhibitor | inhibition of OCT2 [16]: inhibitor | inhibition of OATP1B3 [17]: inhibitor | in vivo antitumour activity [18]: robust in vivo antitumour activity | primary toxicities [19]: haematopoietic effects (myeloid suppression, bone marrow hypocellularity) | primary toxicities [20]: haematopoietic effects (myeloid suppression, bone marrow hypocellularity)
